Laboratory results from ChEMBL document CHEMBL4190397, “Design and Synthesis of Novel and Selective Glycine Transporter-1 (GlyT1) Inhibitors with Memory Enhancing Properties” (J Med Chem, 2018).

Assays:
Cytochrome P450 2D6 = Cytochrome P450 2D6 (Homo sapiens, UniProt P10635); test: Inhibition of CYP2D6 in human liver microsomes using dextromethorphan as substrate measured after 10 mins in presence of NADPH by LC-MS/MS analysis
[1] = Permeability of the compound at pH 7.4 at 100 uM after 60 mins by PAMPA-BBB assay
[2] = Intrinsic clearance in human liver microsomes at 1 uM assessed per mg protein at 37 degC up to 60 mins in presence of NADPH by HPLC-MS analysis; assay type: ADME, microsome; conditions: read-out: CLH
Cytochrome P450 3A4 = Cytochrome P450 3A4 (Homo sapiens, UniProt P08684); test: Inhibition of CYP3A4 in human liver microsomes using midazolam as substrate measured after 7 mins in presence of NADPH by LC-MS/MS analysis
Cytochrome P450 3A4, sequence (P08684 whole entry): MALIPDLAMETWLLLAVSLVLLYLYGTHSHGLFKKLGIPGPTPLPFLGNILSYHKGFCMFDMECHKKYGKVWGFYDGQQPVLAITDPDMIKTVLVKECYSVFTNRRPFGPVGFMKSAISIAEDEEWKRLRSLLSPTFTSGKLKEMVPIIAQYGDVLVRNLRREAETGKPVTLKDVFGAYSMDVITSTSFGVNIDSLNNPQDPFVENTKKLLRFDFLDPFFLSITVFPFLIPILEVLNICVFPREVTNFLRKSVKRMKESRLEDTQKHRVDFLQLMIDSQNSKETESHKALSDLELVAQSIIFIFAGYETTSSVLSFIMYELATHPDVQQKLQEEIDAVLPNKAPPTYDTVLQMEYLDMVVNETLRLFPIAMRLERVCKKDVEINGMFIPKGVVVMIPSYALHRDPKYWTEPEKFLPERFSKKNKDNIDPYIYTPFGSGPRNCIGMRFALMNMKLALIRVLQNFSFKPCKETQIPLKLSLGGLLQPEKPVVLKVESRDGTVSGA

[3] = Intrinsic clearance in rat liver microsomes at 1 uM assessed per mg protein at 37 degC up to 30 mins in presence of NADPH by HPLC-MS analysis; assay type: ADME, microsome; conditions: read-out: CLH
[4] = molecular target: T1, Sodium- and chloride-dependent glycine transporter 1 (Rattus norvegicus, UniProt P28572); test: Inhibition of GlyT1 in primary rat cortical neurons assessed as reduction in [14C]glycine uptake after 2 hrs by microbeta scintillation counting method
T1 sequence (P28572 whole entry): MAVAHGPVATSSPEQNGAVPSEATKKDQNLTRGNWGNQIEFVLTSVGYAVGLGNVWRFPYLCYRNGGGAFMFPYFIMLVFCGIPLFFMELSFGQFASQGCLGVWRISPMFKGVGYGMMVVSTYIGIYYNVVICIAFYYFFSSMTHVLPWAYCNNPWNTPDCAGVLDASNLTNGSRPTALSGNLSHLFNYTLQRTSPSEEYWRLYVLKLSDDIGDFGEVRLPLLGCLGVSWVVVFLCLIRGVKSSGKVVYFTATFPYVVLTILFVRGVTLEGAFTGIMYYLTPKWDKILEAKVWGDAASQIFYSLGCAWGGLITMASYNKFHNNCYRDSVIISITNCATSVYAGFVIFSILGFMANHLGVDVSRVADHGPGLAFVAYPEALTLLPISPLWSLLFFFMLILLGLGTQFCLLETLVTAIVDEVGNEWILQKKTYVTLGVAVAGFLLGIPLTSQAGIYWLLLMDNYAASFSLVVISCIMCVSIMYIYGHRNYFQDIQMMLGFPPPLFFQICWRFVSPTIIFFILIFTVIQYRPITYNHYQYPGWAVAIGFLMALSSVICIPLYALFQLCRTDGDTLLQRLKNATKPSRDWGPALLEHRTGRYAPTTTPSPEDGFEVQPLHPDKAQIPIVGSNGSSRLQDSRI

Cytochrome P450 1A2 = molecular target: T2, Cytochrome P450 1A2 (Homo sapiens, UniProt P05177); test: Inhibition of CYP1A2 in human liver microsomes using phenacetin as substrate measured after 10 mins in presence of NADPH by LC-MS/MS analysis
T2 sequence (P05177 whole entry): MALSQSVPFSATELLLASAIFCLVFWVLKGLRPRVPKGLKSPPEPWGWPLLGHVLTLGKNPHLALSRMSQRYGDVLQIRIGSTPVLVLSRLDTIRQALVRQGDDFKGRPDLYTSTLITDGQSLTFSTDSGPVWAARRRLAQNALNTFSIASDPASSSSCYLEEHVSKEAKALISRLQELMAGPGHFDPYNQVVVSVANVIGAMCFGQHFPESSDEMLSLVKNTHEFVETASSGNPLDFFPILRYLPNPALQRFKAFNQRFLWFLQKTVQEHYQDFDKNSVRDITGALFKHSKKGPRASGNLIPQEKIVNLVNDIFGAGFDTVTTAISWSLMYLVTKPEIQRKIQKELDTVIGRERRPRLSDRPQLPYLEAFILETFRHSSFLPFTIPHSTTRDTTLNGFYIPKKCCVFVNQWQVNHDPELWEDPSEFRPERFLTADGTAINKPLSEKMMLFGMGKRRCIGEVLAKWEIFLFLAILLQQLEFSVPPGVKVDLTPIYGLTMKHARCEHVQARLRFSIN

[5] = molecular target: Voltage-gated inwardly rectifying potassium channel KCNH2 (Homo sapiens, UniProt Q12809); test: Inhibition of human ERG expressed in CHO cells at 10 nM to 10 uM at holding potential of -80 mV measured after 5 mins by QPatch automated patch clamp electrophysiology method
Voltage-gated inwardly rectifying potassium channel KCNH2, sequence (Q12809 whole entry): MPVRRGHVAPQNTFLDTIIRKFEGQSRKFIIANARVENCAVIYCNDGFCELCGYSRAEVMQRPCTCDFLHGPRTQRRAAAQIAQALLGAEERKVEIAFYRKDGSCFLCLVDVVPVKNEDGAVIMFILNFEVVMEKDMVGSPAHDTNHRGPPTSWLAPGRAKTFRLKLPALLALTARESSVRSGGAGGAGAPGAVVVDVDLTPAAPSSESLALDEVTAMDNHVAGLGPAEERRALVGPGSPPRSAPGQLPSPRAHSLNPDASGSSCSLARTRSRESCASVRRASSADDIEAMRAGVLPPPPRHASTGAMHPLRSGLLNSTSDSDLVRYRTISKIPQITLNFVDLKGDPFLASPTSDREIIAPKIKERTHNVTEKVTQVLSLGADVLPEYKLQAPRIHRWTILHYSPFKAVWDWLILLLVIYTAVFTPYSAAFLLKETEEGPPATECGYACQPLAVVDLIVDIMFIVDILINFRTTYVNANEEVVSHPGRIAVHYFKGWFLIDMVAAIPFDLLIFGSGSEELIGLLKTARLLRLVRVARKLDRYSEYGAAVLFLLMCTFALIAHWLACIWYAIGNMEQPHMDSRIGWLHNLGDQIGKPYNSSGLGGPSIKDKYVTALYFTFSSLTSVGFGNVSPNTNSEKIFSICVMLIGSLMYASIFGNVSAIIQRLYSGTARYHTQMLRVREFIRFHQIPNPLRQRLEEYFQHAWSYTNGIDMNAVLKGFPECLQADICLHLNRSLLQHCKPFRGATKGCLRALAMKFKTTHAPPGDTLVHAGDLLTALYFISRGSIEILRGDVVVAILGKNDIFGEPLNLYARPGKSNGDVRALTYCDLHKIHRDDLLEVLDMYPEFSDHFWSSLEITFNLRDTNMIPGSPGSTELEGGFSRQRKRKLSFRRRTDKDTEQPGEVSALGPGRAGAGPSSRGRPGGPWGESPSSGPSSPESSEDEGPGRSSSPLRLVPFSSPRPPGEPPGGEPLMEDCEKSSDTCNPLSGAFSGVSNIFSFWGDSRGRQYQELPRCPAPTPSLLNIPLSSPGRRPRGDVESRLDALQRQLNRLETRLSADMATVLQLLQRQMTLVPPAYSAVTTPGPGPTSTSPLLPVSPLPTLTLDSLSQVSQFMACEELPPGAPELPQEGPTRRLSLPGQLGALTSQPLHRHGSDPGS

[6] = molecular target: T3, Sodium- and chloride-dependent glycine transporter 1 (Homo sapiens, UniProt P48067); test: Inhibition of recombinant human GlyT1c expressed in HEK293 cells assessed as reduction in [14C]glycine uptake after 2 hrs by microbeta scintillation counting method; assay type: cell-based
T3 sequence (P48067 whole entry): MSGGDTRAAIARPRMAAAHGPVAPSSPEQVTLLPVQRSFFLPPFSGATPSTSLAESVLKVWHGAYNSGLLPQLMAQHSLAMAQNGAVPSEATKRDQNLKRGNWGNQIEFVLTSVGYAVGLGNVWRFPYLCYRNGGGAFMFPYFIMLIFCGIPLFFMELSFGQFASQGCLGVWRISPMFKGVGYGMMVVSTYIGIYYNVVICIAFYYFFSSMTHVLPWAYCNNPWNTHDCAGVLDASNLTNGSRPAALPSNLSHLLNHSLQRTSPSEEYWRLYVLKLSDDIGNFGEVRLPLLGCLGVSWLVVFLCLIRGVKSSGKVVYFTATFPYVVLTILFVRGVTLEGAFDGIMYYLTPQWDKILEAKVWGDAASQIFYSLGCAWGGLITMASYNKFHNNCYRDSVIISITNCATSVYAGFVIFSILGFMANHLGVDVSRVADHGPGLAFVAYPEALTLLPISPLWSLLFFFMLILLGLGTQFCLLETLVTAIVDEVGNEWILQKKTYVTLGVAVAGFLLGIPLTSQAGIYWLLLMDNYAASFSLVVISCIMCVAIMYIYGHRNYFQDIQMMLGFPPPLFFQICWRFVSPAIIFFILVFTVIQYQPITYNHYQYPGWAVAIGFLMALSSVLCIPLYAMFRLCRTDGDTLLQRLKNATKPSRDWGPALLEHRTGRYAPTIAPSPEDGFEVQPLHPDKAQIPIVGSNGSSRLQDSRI

[7] = Apparent permeability from apical to basolateral side in MDCK-MDR1 cells monolayer at 5 uM after 60 mins by LC-MS/MS analysis; conditions: dog
Cytochrome P450 2C19 = Cytochrome P450 2C19 (Homo sapiens, UniProt P33261); test: Inhibition of CYP2C19 in human liver microsomes using S-mephenytoin as substrate measured after 10 mins in presence of NADPH by LC-MS/MS analysis
Cytochrome P450 2C19, sequence (P33261 whole entry): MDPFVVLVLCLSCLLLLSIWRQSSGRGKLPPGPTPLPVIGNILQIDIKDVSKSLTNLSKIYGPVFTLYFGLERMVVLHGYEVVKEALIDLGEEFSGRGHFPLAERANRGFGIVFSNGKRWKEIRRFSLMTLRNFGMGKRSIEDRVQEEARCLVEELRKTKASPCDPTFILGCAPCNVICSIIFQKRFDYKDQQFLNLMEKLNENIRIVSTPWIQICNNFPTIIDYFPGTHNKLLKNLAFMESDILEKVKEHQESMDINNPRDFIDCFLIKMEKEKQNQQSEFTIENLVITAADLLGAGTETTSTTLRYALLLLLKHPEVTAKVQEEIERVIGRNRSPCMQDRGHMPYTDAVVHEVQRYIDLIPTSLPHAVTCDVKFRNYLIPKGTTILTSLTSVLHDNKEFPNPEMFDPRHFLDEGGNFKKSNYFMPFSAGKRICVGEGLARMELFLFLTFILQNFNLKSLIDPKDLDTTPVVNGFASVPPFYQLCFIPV

[8] = Efflux ratio of apparent permeability from basolateral to apical over apical to basolateral side in MDCK-MDR1 cells at 5 uM after 60 mins by LC-MS/MS analysis; conditions: dog
Cytochrome P450 2C9 = Cytochrome P450 2C9 (Homo sapiens, UniProt P11712); test: Inhibition of CYP2C9 in human liver microsomes using diclofenac as substrate measured after 10 mins in presence of NADPH by LC-MS/MS analysis
Cytochrome P450 2C9, sequence (P11712 whole entry): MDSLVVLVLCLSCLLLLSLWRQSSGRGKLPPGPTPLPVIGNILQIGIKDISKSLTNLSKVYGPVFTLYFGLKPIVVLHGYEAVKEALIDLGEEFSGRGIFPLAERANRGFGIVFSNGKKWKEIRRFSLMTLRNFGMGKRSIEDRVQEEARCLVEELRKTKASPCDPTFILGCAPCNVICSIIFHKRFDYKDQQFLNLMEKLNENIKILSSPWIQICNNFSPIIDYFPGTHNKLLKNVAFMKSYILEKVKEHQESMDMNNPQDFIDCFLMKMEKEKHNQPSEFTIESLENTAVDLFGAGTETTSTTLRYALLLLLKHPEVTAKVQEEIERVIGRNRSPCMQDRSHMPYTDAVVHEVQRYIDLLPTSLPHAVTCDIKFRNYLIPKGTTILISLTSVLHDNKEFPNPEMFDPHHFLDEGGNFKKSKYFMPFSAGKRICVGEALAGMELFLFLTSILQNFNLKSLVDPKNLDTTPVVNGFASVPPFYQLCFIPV

Cytochrome P450 2D6, sequence (P10635 whole entry): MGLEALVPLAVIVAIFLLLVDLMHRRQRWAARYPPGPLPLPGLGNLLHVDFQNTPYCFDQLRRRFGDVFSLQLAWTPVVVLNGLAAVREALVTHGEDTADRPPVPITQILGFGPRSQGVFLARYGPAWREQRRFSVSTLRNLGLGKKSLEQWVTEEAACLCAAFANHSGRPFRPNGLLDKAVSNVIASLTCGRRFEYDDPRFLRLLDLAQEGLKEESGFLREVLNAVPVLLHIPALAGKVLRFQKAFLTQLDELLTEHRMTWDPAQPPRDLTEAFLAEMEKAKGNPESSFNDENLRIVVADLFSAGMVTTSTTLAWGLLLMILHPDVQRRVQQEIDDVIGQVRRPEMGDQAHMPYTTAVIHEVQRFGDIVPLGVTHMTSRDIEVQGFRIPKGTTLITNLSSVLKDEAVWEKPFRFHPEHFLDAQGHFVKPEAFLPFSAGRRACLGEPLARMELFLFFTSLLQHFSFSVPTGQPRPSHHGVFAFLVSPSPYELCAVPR

Row | IC50 (Cytochrome P450 2D6) [µM] | Papp at 1 h, 100 µM [1] [×10⁻⁶ cm/s] | microsomal CLint at 1 µM [2] [µL/min/mg] | IC50 (Cytochrome P450 3A4) [µM] | microsomal CLint at 1 µM [3] [µL/min/mg] | IC50 [4] [µM] | IC50 (Cytochrome P450 1A2) [µM] | IC50 [6] [µM] | Papp A→B at 1 h, 5 µM [7] [×10⁻⁶ cm/s] | IC50 (Cytochrome P450 2C19) [µM] | efflux ratio at 1 h, 5 µM [8] | IC50 (Cytochrome P450 2C9) [µM] | Structure (SMILES) | IC50 [5] [µM]
1 | > 10 | > 10 | 13.5 | > 10 | 451 | 0.108 | > 10 | 0.078 | 57.4 | > 10 | 1.1 | > 10 | C[C@H](Oc1ccc(C#N)cc1C(=O)N1Cc2cn(-c3ccccc3F)nc2C1)C(F)(F)F | > 10
2 | > 10 | 77.9 | 0.3 | > 10 | 5.3 | 0.028 | > 10 | 0.038 | 24.6 | > 10 | 2.4 | > 10 | CS(=O)(=O)c1ccc(OCC2CC2)c(C(=O)N2Cc3cn(-c4ccccc4F)nc3C2)c1 | 9.9
